Results published in article PMC8879095, “UHPLC-MS/MS Analysis of Antibiotics Transfer and Concentrations in Porcine Oral Fluid after Intramuscular Application” (Pharmaceuticals, 2022).
Where two headings read alike, the source gives them in different places.

Key:
[1] = Antibiotic concentrations in porcine oral fluid after intramuscular application (UHPLC-MS/MS); format: in vivo; conditions: pigs, i.m.; for concentration in oral fluid at withdrawal period: at the end of the withdrawal period for tissues of each drug (Table 3); for time for which the analyte was present / quantified in oral fluid: sampling for 30 days
Experimental: All animals were born in the sow farm (8000 DanBred sows) located in Northern Poland, after crossing ♀(♂Landrace × ♀Yorskshire) × ♂Duroc. Piglets were weaned after 4 weeks of lactation with an average weight of 6 kg and then moved to the weaner stable (23,000 weaners). After the next 7 weeks, animals were transported to the 9000-places fattening farm with an average body weight of 28 kg, where the trial was performed. All farms in the aforementioned three-phase model used weekly batches and an all-in all-out system. Specialist veterinary and production management care were provided in each location.
For the purpose of the study, 240 immunologically castrated boars were divided into 8 groups, 30 animals in each pen. For the control group, 30 pigs were used in separate pens. Their initial body weight was between 40 and 60 kg. Pigs were housed at 20–25 °C. Fatteners were fed ad libitum with antimicrobial-free water and feed provided by feeders throughout the study. Before the experiment, water and feed were checked for antimicrobials, and no antimicrobial treatments were administered to these pigs before. All animals in one pen were treated due to the same health issue using disposable needles and the same drug and dosage. Pens were separated from each other with concrete walls. The drugs and dosage administered to each experimental group with an indication of withdrawal period for tissues are listed in Table 3. The oral fluid samples were collected using three cotton ropes (70 cm length with 1 cm diameter) in each pen suspended separately for 25 min on the front wall of the pen with bottoms at the pigs’ shoulder height, away from water and feed.
The research material was one pooled sample of oral fluid from 10 pigs, in triplicate, per pen. Ropes were removed immediately after collection. The first oral fluid sample was collected 24 h after the first injection. The collection of each subsequent sample took place at the same time (11:30 A.M.) for 35 consecutive days. Additionally, oral fluid samples were collected from pigs not treated with any antibiotics. Oral fluid from each pen was pooled into one 50-mL Falcon plastic tube and centrifuged at 9447× rcf for 15 min. Centrifuged material was transferred to a 15 mL plastic tube and frozen at −20 °C until analysis.
Before the analysis, the oral fluid samples were centrifuged at 9447× rcf. Next, an aliquot (1 mL) of oral fluid was placed into a 2 mL polypropylene centrifuge tube, and the 30 µL of the internal standard at the concentration of 2 µg/mL was added. For the extraction of analysed antibiotics, 600 µL of 0.5% formic acid was added, vortexed for 30 s and centrifuged for 10 min at 9447× rcf. Then, the supernatant was filtered through a […] PVDF filter into an amber glass vial before chromatographic analysis.
The mass spectrometry detection was operated in the positive ESI mode with multiple reaction monitoring (MRM).

[2] = design: method as in PMID 14651045, PMID 14651045; conditions: cited from earlier work
[3] = organic acid; cited from earlier work
[4] = design: method as in PMID 28042939; conditions: 21st day, i.m., cited from earlier work
[5] = male, (Landrace × Yorkshire) × Duroc crossbred (DanBred sows), pig, intramuscular, oral fluid, time 1 d (24 h after first injection), treatment period, read-out: Avarage Concentrations in oral fluid
[6] = male, (Landrace × Yorkshire) × Duroc crossbred (DanBred sows), pig, intramuscular, oral fluid, treatment period, read-out: Avarage Concentrations in oral fluid
[7] = male, (Landrace × Yorkshire) × Duroc crossbred (DanBred sows), pig, intramuscular, oral fluid, posttreatment, read-out: Avarage Concentrations in oral fluid
[8] = oral fluid, time 1 d (24 h after first injection), treatment period
[9] = oral fluid, time 9 d, posttreatment
[10] = oral fluid, time 10 d, posttreatment
[11] = oral fluid, time 11 d, posttreatment
[12] = oral fluid, time 12 d, posttreatment
[13] = oral fluid, time 13 d, posttreatment
[14] = oral fluid, time 14 d, posttreatment
[15] = oral fluid, time 15 d, posttreatment
[16] = oral fluid, time 16 d, posttreatment
[17] = oral fluid, time 17 d, posttreatment
[18] = oral fluid, time 18 d, posttreatment
[19] = oral fluid, time 19 d, posttreatment
[20] = oral fluid, time 20 d, posttreatment
[21] = oral fluid, time 21 d, posttreatment
[22] = oral fluid, time 22 d, posttreatment
[23] = oral fluid, time 23 d, posttreatment
[24] = oral fluid, time 24 d, posttreatment
[25] = oral fluid, time 25 d, posttreatment
[26] = oral fluid, time 26 d, posttreatment
[27] = oral fluid, time 27 d, posttreatment
[28] = oral fluid, time 28 d, posttreatment
[29] = oral fluid, time 29 d, posttreatment
[30] = oral fluid, time 30 d, posttreatment

CC1(C)S[C@@H]2[C@H](NC(=O)[C@H](N)c3ccc(O)cc3)C(=O)N2[C@H]1C(=O)O [AMX, amoxicillin]
concentration at 1 d [1, 5]: 11.3 ng/mL | concentration at 2 d [1, 6]: 15.2 ± 2.3 ng/mL | concentration at 3 d [1, 6]: 14.6 ± 1.8 ng/mL | concentration at 4 d [1, 7]: 11.4 ± 1.4 ng/mL | concentration at 5 d [1, 7]: 11.2 ± 1.6 ng/mL | concentration in oral fluid at withdrawal period ([1]; oral fluid): below the limit of quantification | time for which the analyte was present / quantified in oral fluid ([1]; oral fluid): 5 days | Avarage Concentrations in oral fluid [1, 8]: 11.3 ± 1.6 µg/L | Avarage Concentrations in oral fluid ([1]; oral fluid, time 6 d, posttreatment): <LOQ | Avarage Concentrations in oral fluid ([1]; oral fluid, time 7 d, posttreatment): <LOQ | Avarage Concentrations in oral fluid ([1]; oral fluid, time 8 d, posttreatment): <LOQ | Avarage Concentrations in oral fluid [1, 9]: <LOQ | Avarage Concentrations in oral fluid [1, 10]: <LOQ | Avarage Concentrations in oral fluid [1, 11]: <LOQ * | Avarage Concentrations in oral fluid [1, 12]: <LOQ | Avarage Concentrations in oral fluid [1, 13]: <LOQ | Avarage Concentrations in oral fluid [1, 14]: <LOQ | Avarage Concentrations in oral fluid [1, 15]: <LOQ | Avarage Concentrations in oral fluid [1, 16]: <LOQ | Avarage Concentrations in oral fluid [1, 17]: <LOQ | Avarage Concentrations in oral fluid [1, 18]: <LOQ | Avarage Concentrations in oral fluid [1, 19]: <LOQ | Avarage Concentrations in oral fluid [1, 20]: <LOQ | Avarage Concentrations in oral fluid [1, 21]: <LOQ | Avarage Concentrations in oral fluid [1, 22]: <LOQ | Avarage Concentrations in oral fluid [1, 23]: <LOQ | Avarage Concentrations in oral fluid [1, 24]: <LOQ | Avarage Concentrations in oral fluid [1, 25]: <LOQ | Avarage Concentrations in oral fluid [1, 26]: <LOQ | Avarage Concentrations in oral fluid [1, 27]: <LOQ | Avarage Concentrations in oral fluid [1, 28]: <LOQ | Avarage Concentrations in oral fluid [1, 29]: <LOQ | Avarage Concentrations in oral fluid [1, 30]: <LOQ | distribution to oral fluid ([1]; conclusion in words): low penetration | binding degree to plasma proteins [2]: ≈ 25%

CC1(C)S[C@@H]2[C@H](NC(=O)Cc3ccccc3)C(=O)N2[C@H]1C(=O)O [PEN G, penicillin G]
pKa [3]: 2.7 | concentration at 1 d [1, 5]: 93 ng/mL | concentration at 2 d [1, 6]: 50 ± 15 ng/mL | concentration at 3 d [1, 6]: 11 ± 4.6 ng/mL | concentration at 4 d [1, 7]: 16 ± 5.4 ng/mL | concentration at 5 d [1, 7]: 5.2 ± 1.1 ng/mL | concentration at 6 d ([1]; male, (Landrace × Yorkshire) × Duroc crossbred (DanBred sows), pig, intramuscular, oral fluid, time 6 d, posttreatment, read-out: Avarage Concentrations in oral fluid): 52 ± 13 ng/mL | concentration at 7 d ([1]; male, (Landrace × Yorkshire) × Duroc crossbred (DanBred sows), pig, intramuscular, oral fluid, time 7 d, posttreatment, read-out: Avarage Concentrations in oral fluid): 32 ± 7.2 ng/mL | concentration at 8 d ([1]; male, (Landrace × Yorkshire) × Duroc crossbred (DanBred sows), pig, intramuscular, oral fluid, time 8 d, posttreatment, read-out: Avarage Concentrations in oral fluid): 6 ± 1.2 ng/mL | concentration in oral fluid at withdrawal period ([1]; oral fluid): below the limit of quantification | time for which the analyte was present / quantified in oral fluid ([1]; oral fluid): 8 days | Avarage Concentrations in oral fluid [1, 8]: 93 ± 21 µg/L | Avarage Concentrations in oral fluid [1, 9]: <LOQ * | Avarage Concentrations in oral fluid [1, 10]: <LOQ | Avarage Concentrations in oral fluid [1, 11]: <LOQ | Avarage Concentrations in oral fluid [1, 12]: <LOQ | Avarage Concentrations in oral fluid [1, 13]: <LOQ | Avarage Concentrations in oral fluid [1, 14]: <LOQ | Avarage Concentrations in oral fluid [1, 15]: <LOQ | Avarage Concentrations in oral fluid [1, 16]: <LOQ | Avarage Concentrations in oral fluid [1, 17]: <LOQ | Avarage Concentrations in oral fluid [1, 18]: <LOQ | Avarage Concentrations in oral fluid [1, 19]: <LOQ | Avarage Concentrations in oral fluid [1, 20]: <LOQ | Avarage Concentrations in oral fluid [1, 21]: <LOQ | Avarage Concentrations in oral fluid [1, 22]: <LOQ | Avarage Concentrations in oral fluid [1, 23]: <LOQ | Avarage Concentrations in oral fluid [1, 24]: <LOQ | Avarage Concentrations in oral fluid [1, 25]: <LOQ | Avarage Concentrations in oral fluid [1, 26]: <LOQ | Avarage Concentrations in oral fluid [1, 27]: <LOQ | Avarage Concentrations in oral fluid [1, 28]: <LOQ | Avarage Concentrations in oral fluid [1, 29]: <LOQ | Avarage Concentrations in oral fluid [1, 30]: <LOQ

CN(C)[C@@H]1C(O)=C(C(N)=O)C(=O)[C@@]2(O)C(O)=C3C(=O)c4c(O)cccc4[C@@](C)(O)[C@H]3[C@H](O)[C@@H]12 [oxytetracycline]
concentration in oral fluid at the withdrawal period ([4]; group where all pigs were treated): 30.8 µg/kg | concentration in oral fluid at the withdrawal period ([4]; group where the antibiotic was administered to half of the animals in one pen): 11.6 µg/kg
